# Laboratory results: paper PMC3280276 (PLoS ONE, 2012)
# Tested on: C-terminal peptide […]
# Format: binding
substance,measurement,value
saporin,interaction with C-terminal peptide […],did not observe any measurable interactions
